Patent US20150174193A1, “AGENTS FOR TREATING CYSTIC FIBROSIS” (INSERM, priority 2012, published 2015)
“Also recorded” adds a separate entry of the source.

T1: HNE (Homo sapiens, UniProt P08246)
T1 construct: Aliquots of sputum homogenates containing peptidases in the 10 nanomolar range; from tissue; host or cells: sputum of cystic fibrosis patients (crude homogenate in PBS)
T1 sequence (P08246 30-247 limits assumed): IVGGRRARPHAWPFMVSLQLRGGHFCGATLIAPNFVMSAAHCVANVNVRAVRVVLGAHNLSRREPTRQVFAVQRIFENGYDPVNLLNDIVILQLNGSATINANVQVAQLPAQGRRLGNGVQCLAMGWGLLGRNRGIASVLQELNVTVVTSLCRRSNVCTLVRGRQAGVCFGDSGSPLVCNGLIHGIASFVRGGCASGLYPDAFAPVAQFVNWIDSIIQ

T2: CG (Homo sapiens, UniProt P08311)
T2 construct: Aliquots of sputum homogenates containing peptidases in the 10 nanomolar range; from tissue; host or cells: sputum of cystic fibrosis patients (crude homogenate in PBS)
T2 sequence (P08311 21-243 limits assumed): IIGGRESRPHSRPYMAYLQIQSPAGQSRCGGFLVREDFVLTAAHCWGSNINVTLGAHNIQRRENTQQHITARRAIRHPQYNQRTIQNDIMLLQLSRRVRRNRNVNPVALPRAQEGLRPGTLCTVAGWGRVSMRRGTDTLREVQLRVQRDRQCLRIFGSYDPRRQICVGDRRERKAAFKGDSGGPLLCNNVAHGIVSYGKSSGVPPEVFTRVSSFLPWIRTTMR

T3: Pr3 (Homo sapiens, UniProt P24158)
T3 construct: Aliquots of sputum homogenates containing peptidases in the 10 nanomolar range; from tissue; host or cells: sputum of cystic fibrosis patients (crude homogenate in PBS)
T3 sequence (P24158 28-248 limits assumed): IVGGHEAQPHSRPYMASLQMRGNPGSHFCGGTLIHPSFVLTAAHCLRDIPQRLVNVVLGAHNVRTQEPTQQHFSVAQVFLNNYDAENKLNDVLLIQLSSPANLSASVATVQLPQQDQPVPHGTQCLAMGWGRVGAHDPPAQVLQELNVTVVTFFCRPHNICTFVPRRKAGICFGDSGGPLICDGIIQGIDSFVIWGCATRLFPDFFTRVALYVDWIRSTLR

B1: DNase: DNase, most widely used mucoactive agent for CF patients; comparator (protein, UniProt P24855 23-282, looked up)
Deoxyribonuclease-1: LKIAAFNIQTFGETKMSNATLVSYIVQILSRYDIALVQEVRDSHLTAVGKLLDNLNQDAPDTYHYVVSEPLGRNSYKERYLFVYRPDQVSAVDSYYYDDGCEPCGNDTFNREPAIVRFFSRFTEVREFAIVPLHAAPGDAVAEIDALYDVYLDVQEKWGLEDVMLMGDFNAGCSYVRPSQWSSIRLWTSPTFQWLIPDSADTTATPTHCAYDRIVVAGMLLRGAVVPDSALPFNFQAAYGLSDQLAQAISDHYPVEVMLK

How the values were obtained:
[1] = tested on: neutrophil serine proteases (HNE, Pr3 and CG); assay: Proteases activities and inhibition in CF sputum, overall comparison of treatments; type: biochemical, human; conditions: compared with pLK of higher MW (40,000-50,000 Da)
Description: (§1) Sputum processing-CF sputum was collected into 50 ml Falcon® tubes by physiotherapy and processed immediately. Sputum was diluted with 3 volumes of PBS per gram and homogenized to obtain a crude homogenate that was kept on ice. An aliquot of each homogenate was incubated for 2 h in low-binding microtubes with 400 μg/ml DNase or with 1.5 mg/ml of poly-L-Lysine (pLK) or PEGylated pLK (PEG-g-pLK) under gentle stirring at room temperature, then layered on a glass slide for cell counting by trypan blue exclusion and visual aspect under the optical microscope. Different sizes of pLK were tested (pLK, HBr of either 500-2,000 Da, 1000-5,000 Da, 4,000-15,000 Da and 40,000-50,000 Da molecular weight). PEG-g-pLK was pLK of 40,000-50,000 Da molecular weight grafted with one mPEG molecule of 5,000 Da.
Proteases activities were measured as described in (26) with the specific FRET (fluorescence resonance energy transfer) substrates of HNE, Pr3 and CG: Abz-APEEIMRRQ-YNO2, Abz-VADnVADQ-EDDnp and Abz-TPFSGQ-YNO2 respectively (λex=320 nm and λem=420 nm). The concentrations of active proteases in biological samples were determined by comparing the rates of hydrolysis of their specific substrates with those of commercial titrated proteases under the same experimental conditions. […]

Beas-2B cells = assay: In vitro cellular toxicity in Beas-2B cell cultures; type: cell-based; conditions: in vitro cultures of Beas-2B cells
control mice = type: in vivo, mouse
Source text: The objective of the study was to identify the nature and the dose of polycations to be aerosolized safely in control mice.
In vivo assessment of polycations toxicity has been done by cytologic analysis of bronchoalveolar lavage fluids (BALFs), quantification of proinflammatory cytokines (IL6 and KC) and lung anatomopathology.
Aerosol administration of different doses of pLK was done using a Microsprayer®. Mice were killed at day 2 and day 5 and bronchoalveolar lavage fluids (BALF) were obtained with instillation of 5×0.5 mL of sterile PBS into the lungs. Lungs were perfused with 4% formaldehyde for histological studies. Cells were collected after centrifugation of BALFs, suspended in PBS, and analyzed by flow cytometry. The supernatant was used for cytokine quantification using commercially available ELISA kits.

HNE = biological target: T1, HNE; assay: HNE activity in whole CF sputa and its inhibition by exogenous inhibitors; type: biochemical; conditions: after treatment of whole CF sputum
Description: (§2) Proteases activities were measured as described in (26) with the specific FRET (fluorescence resonance energy transfer) substrates of HNE, Pr3 and CG: Abz-APEEIMRRQ-YNO2, Abz-VADnVADQ-EDDnp and Abz-TPFSGQ-YNO2 respectively (λex=320 nm and λem=420 nm). The concentrations of active proteases in biological samples were determined by comparing the rates of hydrolysis of their specific substrates with those of commercial titrated proteases under the same experimental conditions. HNE and Pr3 were titrated as described in (27) and CG was titrated with HNE-titrated recombinant human secretory leukocyte protease inhibitor.
(§3) Aliquots of sputum homogenates containing peptidases in the 10 nanomolar range, were incubated for 30 min at room temperature with increasing amounts of inhibitors up to a (I)/(E) molar ratio of about 40. The low Mr recombinant inhibitor EPI-hNE4 or α1-proteinase inhibitor (α1-Pi) were used to inhibit HNE, while α1-antichymotrypsin (ACT) was used to inhibit CG; Pr3 was inhibited with α1-Pi after samples had been incubated with a 1000-fold molar excess of EPI-hNE4 to avoid the α1-Pi interacting with HNE (8).

CF sputum = CF sputum homogenate treatment: visual aspect and cell counting; design: species or system human; conditions: for morphological aspect of the sputum after treatment: CF sputum homogenate, 2 h, 400 μg/ml DNase or 1.5 mg/ml pLK
Description: as §1
The increased viscosity of mucus in the CF lung leads to lung obstruction and subsequent decrease in lung function. Because DNA is a major component of CF lung secretions that contributes to their viscosity, rhDNase has been used for long by CF patients as a liquefying expectorant (28). A possible other mean to fluidize lung secretions could be through the condensation of extracellular DNA by positively charged polymers. We checked this hypothesis using poly-L-lysine (pLK) and comparing the rheological properties of CF sputa before and after treatment by pLK. Then we compared the results with those obtained using DNase in the same conditions.

extracellular DNA = assay: Quantification of extracellular DNA in CF sputum; design: species or system human; conditions: for amount of extracellular DNA: CF sputum after treatment, EvaGreen
Description: as §1
Extracellular DNA is quantified with the non-cell-permeant fluorochrome EvaGreen™ dsDNA reagent (λex=488 nm and λem=520 nm).

[2] = tested on: P. aeruginosa (strain PAO1); assay: Antimicrobial test and scanning electron microscopy, P. aeruginosa; type: cell-based, Pseudomonas aeruginosa; conditions: for bactericidal effect (CFU): 6×10^6 bacteria, 3 h, 150 μl PBS, 110 μg DNase or 2 μg pLK
Description: (§4) The bacterial count was determined by the measure of OD600nm.
(§5) 6×10^6 bacteria were incubated in low-binding 96-wells microplates 3 h in 150 μl PBS containing 110 μg of DNase or 2 μg of pLK (MW 40,000-50,000 Da). Aliquots of the media were then collected and serial dilutions in PBS were laid on agar plates. CFUs were numbered after incubation at 37° C. Extracellular DNA in the remaining media was quantified as previously described as a marker of bacterial wall permeability.
(§6) 6×10^6 bacteria were settled on polylysine-coated glass slides and treated (or not) with DNase or pLK (pLK of 40,000-50,000 Da). They were then fixed with 1% (v/v) glutaraldehyde and 4% (v/v) paraformaldehyde in 0.1 M PBS, pH 7.4, post-fixed in 2% (v/v) osmium tetroxide, dehydrated in a graded acetone series, dried to the critical point using carbon dioxide, and sputter coated with platinum.

CG = biological target: T2, CG; assay: CG activity in whole CF sputa and its inhibition by ACT; type: biochemical; conditions: after treatment of whole CF sputum
Description: as §2, §3

Pr3 = biological target: T3, Pr3; assay: Pr3 activity in whole CF sputa and its inhibition by α1-Pi; type: biochemical; conditions: after treatment of whole CF sputum
Description: as §2, §3

[3] = tested on: S. aureus (strain CIP 103811); assay: Antimicrobial test and scanning electron microscopy, S. aureus; type: cell-based, Staphylococcus aureus; conditions: for bactericidal effect (CFU): 6×10^6 bacteria, 3 h, 150 μl PBS, 110 μg DNase or 2 μg pLK
Description: as §4, §5, §6

[4] = aerosol 2.4 mg/kg (66 μg in 50 μL, about 130 μM), Mann-Whitney test

Molecule	elastase activity in whole sputum (HNE)	inhibition of elastase activity by elastase inhibitors (α1-Pi) (HNE)	morphological aspect of the sputum after treatment (CF sputum)	amount of extracellular DNA (extracellular DNA)	bactericidal effect (CFU) [2]	morphology of the bacteria (scanning electron microscopy) ([2]; P. aeruginosa)	CG inhibition by ACT (CG)	activity of PR3 (Pr3)	inhibition of PR3 by α1-Pi (Pr3)	bactericidal effect (CFU) [3]	morphology of the bacteria (scanning electron microscopy) ([3]; S. aureus)	further results
poly-L-lysine [pLK 500-2,000 Da]	–	–	–	–	–	–	–	–	–	–	–	efficiency of pLK of different sizes [1]: far less efficient
poly-L-lysine [pLK (4-15 kDa)]	–	–	–	–	–	–	–	–	–	–	–	cellular toxicity (Beas-2B cells): can be observed; in vitro toxicity threshold (Beas-2B cells): 5 µM; efficiency of pLK of different sizes ([1]; listed as pLK 4,000-15,000 Da): same results as those with higher MW; BALF cellularity, treated vs control mice (control mice; [4]): no significant differences; cytokines quantification (IL6 and KC) in BALF, treated vs control mice (control mice; [4]): no significant differences; broncho-interstitial inflammation (histological study) (control mice; aerosol 2.4 mg/kg, day 2, both in treated and in control groups): minimal broncho-interstitial inflammation; lung lesion (histological study) (control mice; aerosol 2.4 mg/kg, day 2 and day 5): no lung lesion
poly-L-lysine [pLK]	dramatic increase; also recorded: increase of elastase activity	stoichiometrically inhibited	fractionation of the sputum in dense aggregates and a very fluid phase	important decrease	significant bactericidal effect	significant modification of the morphology; also recorded: spiculated surface	significantly improved	Neither pLK nor DNase treatments significantly affected	Neither pLK nor DNase treatments significantly affected	significant bactericidal effect	less marked	apparent cell count in sputum homogenate (CF sputum; trypan blue exclusion, neutrophils found in aggregates): apparent decrease; DNA degradation in treated sputum (extracellular DNA; extracellular content restored after addition of dextran sulfate): not degraded; bacterial wall permeabilization (extracellular DNA, non-cell permeant fluorophore) ([2]; P. aeruginosa): disruption of the bacterial wall; bacterial wall permeabilization (extracellular DNA, non-cell permeant fluorophore) ([3]; S. aureus): no wall permeabilization
B1	dramatic increase; also recorded: increase of elastase activity	completely and stoichiometrically inhibited	no morphological change	important decrease	no antimicrobial properties	nor it affected the morphology	pLK, unlike DNase, significantly improved	Neither pLK nor DNase treatments significantly affected	Neither pLK nor DNase treatments significantly affected	no antimicrobial properties	nor it affected the morphology	–
